The record followed here is paper PMC6600542 (Molecules, 2019).

SMILES strings stand for the structures. Several values for one entry are separate records, joined by “and”; a condition that tells them apart may be missing. Equal entries are not always repeated. Bounds are passed on as bounds.

Holding throughout (assay type): biochemical
In one assay the target is human plasmin (Homo sapiens, UniProt P00747). The assay is described as follows: Plasmin chromogenic substrate hydrolysis assay. To be noted: Spectrozyme PL, pH 7.4, 37 °C. Here is the method:
Direct inhibition of human FXa and α-thrombin of the common coagulation pathway and human plasmin of the fibrinolysis pathway were measured using the corresponding chromogenic substrate hydrolysis assays at 37 °C and pH 7.4, as reported earlier using the 96-microplate platform. […] After 10 min incubation, 5 µL Spectrozyme FXa (5 mM stock conc.) was rapidly added and the residual activity of FXa was measured from the initial rate of increase in absorbance at 405 nm. […] The concentration vs effect curve was constructed using logistic Equation (1) from which the potency (IC50) and efficacy (ΔY) of inhibition were also obtained.
For thrombin and plasmin, the assays were performed using substrates appropriate for each enzyme (Spectrozyme TH for thrombin and Spectrozyme PL for plasmin) under conditions closest to the physiological condition. The KM of the substrate for its enzyme was used to identify the concentration of the substrate to be used for inhibition studies. […] After 10 min incubation, 5 µL Spectrozyme TH (1.0 mM stock conc.) was rapidly added and the residual activity of thrombin was measured from the initial rate of increase in absorbance at 405 nm. […] After 10 min incubation, 5 µL Spectrozyme PL (1.0 mM stock conc.) was rapidly added and the residual activity of plasmin was measured from the initial rate of increase in absorbance at 405 nm. […] Buffer for assays was 20–50 mM Tris-HCl buffer, pH 7.4, containing 100–150 mM NaCl, 2.5 mM CaCl2, 0.1% PEG8000, and 0.02% Tween80. All assays were performed three times.

For a further assay, the target named is human FXa (Homo sapiens, UniProt P00742). The assay is described as follows: Michaelis-Menten kinetics of Spectrozyme FXa hydrolysis by FXa. To be noted: for Km / VMAX of Spectrozyme FXa hydrolysis: pH 7.4, 37 °C. Here is the method:
The initial rate of Spectrozyme FXa hydrolysis by human FXa (87 nM) or that of Spectrozyme PL hydrolysis by human plasmin (120 nM) was monitored from the linear increase in absorbance at 405 nm corresponding to less than 10% consumption of the substrate. […] The data were fitted by Michaelis-Menten Equation (2) to determine KM (substrate affinity to the enzyme) and VMAX (maximum velocity of enzyme reaction). (2) Vi=VMAX×[S]/KM+[S]

The subject of assay [1] is human plasma deficient of FXI. The assay is described as follows: APTT clotting assay, FXI-deficient plasma. Here is the method:
For the PT assay, thromboplastin-D was reconstituted according to the manufacturer’s directions and warmed to 37 °C. […] After incubation for 4 min at 37 °C, clotting was initiated by adding 100 μL of prewarmed 25 mM CaCl2 and the time to clotting was noted. […] To determine the in vitro effect on the APTT of deficient human plasmas, the APTT assay was repeated, using human plasmas deficient of factor VII (FVII), factor IX (FIX), FXI, or factor XII (FXII). […] The positive control used in APTT and PT assays was rivaroxaban, a clinically used FXa inhibitor. Under the conditions reported, rivaroxaban doubled the APTT and PT at concentrations of 0.123 ± 0.003 µM and 0.193 ± 0.043 µM, respectively.

Assay [2] addresses T1, guinea pig transglutaminase (UniProt P08587).
T1 sequence (P08587 1-690): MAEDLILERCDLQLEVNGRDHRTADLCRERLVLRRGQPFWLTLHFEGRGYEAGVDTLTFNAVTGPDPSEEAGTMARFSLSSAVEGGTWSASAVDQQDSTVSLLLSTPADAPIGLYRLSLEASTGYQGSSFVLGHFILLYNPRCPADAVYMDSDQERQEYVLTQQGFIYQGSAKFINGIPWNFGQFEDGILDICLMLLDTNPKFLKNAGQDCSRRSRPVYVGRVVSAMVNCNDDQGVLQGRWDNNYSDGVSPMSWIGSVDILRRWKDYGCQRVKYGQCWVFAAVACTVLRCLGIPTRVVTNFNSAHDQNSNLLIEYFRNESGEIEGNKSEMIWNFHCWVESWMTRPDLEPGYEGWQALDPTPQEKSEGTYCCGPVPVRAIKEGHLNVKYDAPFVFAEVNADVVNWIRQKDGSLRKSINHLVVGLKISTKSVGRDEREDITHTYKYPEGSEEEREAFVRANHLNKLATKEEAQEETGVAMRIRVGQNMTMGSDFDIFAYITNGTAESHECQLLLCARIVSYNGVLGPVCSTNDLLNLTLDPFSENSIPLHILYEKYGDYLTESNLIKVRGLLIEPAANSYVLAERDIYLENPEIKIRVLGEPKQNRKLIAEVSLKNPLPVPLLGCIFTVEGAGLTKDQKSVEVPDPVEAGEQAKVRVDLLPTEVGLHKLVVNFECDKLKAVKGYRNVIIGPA
Kind of assay: Guinea pig transglutaminase inhibition. The following applies: at concentrations as high as 500 µM.

Another assay addresses T2, FXIa (Homo sapiens, UniProt P03951).
T2 construct: purchased Haematologic Technologies, Inc; host or cells: plasma
The assay is described as follows: FXIa chromogenic substrate hydrolysis assay. Here is the method:
Direct inhibition of the human coagulation transglutaminase FXIIIa was also studied using a fluorescence-based transglutamination assay as reported in the literature.
After 10 min incubation, 5 µL FXIa substrate (6.9 mM stock concentration) was rapidly added and the residual FXIa activity was measured from the initial rate of increase in absorbance at 405 nm. Assays were performed in similar fashion with trypsin and chymotrypsin. Stock concentrations used were 18.9 µg/mL (trypsin) and 22.7 mM (S-2222) for bovine trypsin assay (final volume was 200 µL) and 2 µg/mL (chymotrypsin) and 16.2 mM (N-Succinyl-Ala-Ala-Pro-Phe-p-nitroanilide) for bovine chymotrypsin assay (final volume was 200 µL). The buffer used for FXIa, trypsin, chymotrypsin assays was 50 mM Tris-HCl buffer, pH 7.4, containing 150 mM NaCl, 2.5 mM CaCl2, 0.1% PEG8000, and 0.02% Tween80. Neutrophil elastase inhibition assay was performed in a 96-well plate with a final volume of 100 µl with 0.125 M 4-(2-hydroxyethyl)-1-piperazineethanesulfonic acid (HEPES) buffer, pH 7.4 containing 0.125% Triton-X 100, as reported earlier. […] After incubation, 3 µL neutrophil elastase substrate (S-1384; 25 mM stock conc.) was rapidly added and the residual enzyme activity measured from the initial rate of increase in the absorbance at 405 nm.

human FXa, sequence (P00742 235-488 limits assumed): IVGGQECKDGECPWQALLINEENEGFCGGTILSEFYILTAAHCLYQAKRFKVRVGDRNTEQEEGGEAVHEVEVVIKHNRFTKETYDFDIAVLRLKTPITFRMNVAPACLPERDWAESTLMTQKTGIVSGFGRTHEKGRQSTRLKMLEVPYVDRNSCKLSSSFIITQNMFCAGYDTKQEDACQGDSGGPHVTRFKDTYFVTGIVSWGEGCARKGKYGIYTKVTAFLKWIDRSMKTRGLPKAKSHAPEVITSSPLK
human FXa, sequence (P00742 41-179 partner limits assumed): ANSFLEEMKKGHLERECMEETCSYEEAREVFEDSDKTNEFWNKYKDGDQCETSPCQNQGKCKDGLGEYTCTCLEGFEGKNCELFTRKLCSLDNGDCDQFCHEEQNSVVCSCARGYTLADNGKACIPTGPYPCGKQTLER
human plasmin, sequence (P00747 581-810 limits assumed): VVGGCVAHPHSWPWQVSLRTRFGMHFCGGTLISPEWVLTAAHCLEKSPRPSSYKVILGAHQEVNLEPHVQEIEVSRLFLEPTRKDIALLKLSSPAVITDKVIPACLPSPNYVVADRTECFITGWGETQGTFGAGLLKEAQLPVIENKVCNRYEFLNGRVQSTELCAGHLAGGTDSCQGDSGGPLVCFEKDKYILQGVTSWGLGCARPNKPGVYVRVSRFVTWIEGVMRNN
human plasmin, sequence (P00747 97-580 partner limits assumed): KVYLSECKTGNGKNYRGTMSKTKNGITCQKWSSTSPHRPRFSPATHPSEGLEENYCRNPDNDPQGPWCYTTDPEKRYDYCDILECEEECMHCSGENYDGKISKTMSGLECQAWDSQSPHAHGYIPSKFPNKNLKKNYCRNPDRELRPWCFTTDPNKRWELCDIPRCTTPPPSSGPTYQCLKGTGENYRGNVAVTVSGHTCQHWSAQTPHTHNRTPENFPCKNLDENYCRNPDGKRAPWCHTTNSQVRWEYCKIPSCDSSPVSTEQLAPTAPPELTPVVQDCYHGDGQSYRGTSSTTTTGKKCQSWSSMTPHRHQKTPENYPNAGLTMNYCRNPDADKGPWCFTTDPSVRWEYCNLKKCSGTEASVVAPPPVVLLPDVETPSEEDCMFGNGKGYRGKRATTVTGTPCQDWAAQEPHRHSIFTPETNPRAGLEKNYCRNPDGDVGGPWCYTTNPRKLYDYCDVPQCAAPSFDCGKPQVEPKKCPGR
T2 sequence (P03951 388-625 limits assumed): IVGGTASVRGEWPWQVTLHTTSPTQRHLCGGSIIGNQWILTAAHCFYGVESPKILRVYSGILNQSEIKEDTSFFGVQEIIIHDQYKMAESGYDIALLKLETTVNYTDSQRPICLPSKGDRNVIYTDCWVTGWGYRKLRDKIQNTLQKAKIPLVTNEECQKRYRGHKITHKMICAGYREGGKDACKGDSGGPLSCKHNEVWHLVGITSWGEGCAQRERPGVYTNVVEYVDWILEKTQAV
T2 sequence (P03951 19-387 partner limits assumed): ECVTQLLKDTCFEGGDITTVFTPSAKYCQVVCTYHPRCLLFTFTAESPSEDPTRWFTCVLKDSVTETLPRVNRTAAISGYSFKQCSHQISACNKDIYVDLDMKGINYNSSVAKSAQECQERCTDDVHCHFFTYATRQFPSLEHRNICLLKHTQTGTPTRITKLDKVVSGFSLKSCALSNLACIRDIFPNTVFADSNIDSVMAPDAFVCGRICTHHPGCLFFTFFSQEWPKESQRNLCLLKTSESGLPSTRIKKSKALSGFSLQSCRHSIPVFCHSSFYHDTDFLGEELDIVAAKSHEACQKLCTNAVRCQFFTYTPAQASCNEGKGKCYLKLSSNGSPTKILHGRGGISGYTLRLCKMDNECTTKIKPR

In the case of `N=C(N)c1ccc(OCCCCCOc2ccc(C(=N)N)cc2)cc1` [pentamidine isethionate, 4,4′-(pentane-1,5-diylbis(oxy))-dibenzimidamide], at human plasmin, the HS is recorded as 1.1 ± 0.1. Moreover, the IC50 (commonly the concentration at which inhibition is half-maximal) at human plasmin is ~8.4 µM and 8.4 µM; at FXIa (pH 7.4), more than 100 µM. The “∆Y (efficacy)” value on human plasmin is reported as 98.0 ± 3.3%; on human plasmin (listed as pentamidine), ~ 100%. Further, the Km – broadly, the substrate concentration at which the rate is half of its maximum – at human FXa (5 µM pentamidine isethionate) was 267 ± 21.2 µM; on human FXa (10 µM pentamidine isethionate), 410 ± 18.2 µM; at human FXa (20 µM pentamidine isethionate) it was 364 ± 36.6 µM; at human FXa (50 µM pentamidine isethionate), 690 ± 63.1 µM. The “VMAX of Spectrozyme FXa hydrolysis” value amounted to 114.3 ± 4.7 mAU/min on human FXa (5 µM pentamidine isethionate), 124.2 ± 3.3 mAU/min on human FXa (10 µM pentamidine isethionate), 63.1 ± 3.6 mAU/min on human FXa (20 µM pentamidine isethionate) and 60.3 ± 3.8 mAU/min on human FXa (50 µM pentamidine isethionate). The “decrease of VMAX of Spectrozyme FXa hydrolysis” value on human FXa (inhibitor 50 μM vs absence) is listed as ~ 2.8 fold. Moreover, the “increase of KM for Spectrozyme FXa” value at human FXa (inhibitor 50 μM vs absence) is on record as ~ 2.3 fold. Moreover, the “APTTEC2×, concentration to double clotting time” value in assay [1] is 29.48 ± 3.88 µm. For the same compound, the “inhibition of guinea pig transglutaminase” value in assay [2] is recorded as “did not inhibit”. The inhibition (commonly the drop in the measured response relative to a control, in per cent) at 100 µM against FXIa (at 100 µM (highest concentration tested)) was less than 40%.
